Test results from patent publication US5298621A, “Oligopeptide derivatives of ipoxantine endowed with immunomodulating activity and pharmaceutical compositions containing same” (Sigma-Tau Industrie Farmaceutiche Riunite S.p.A., priority 1990, dated 1994).

How the values were obtained:
Klebsiella oxytoca = test: Protective effect in immunodepressed mice infected with Klebsiella oxytoca; assay type: in vivo; details: 25 mg/kg/day i.p. day -5 to -1, versus 44% mortality in the control group
Protocol: Test 2 Assessment of the protective effect induced by ST 657, ST 733, ST 754 and ST 789 on immunodepressed mice experimentally infected.
The immunosuppressor (cyclophosphamide) was administered i.p. in 0.2 mL of sterile saline, 100 mg/kg, 5 days before the infective challenge.
Compounds ST 733 and ST 754 (relevant data not shown in the tables) were administered i.p. (25 mg/kg/day) from day -5 (cyclophosphamide administration day) to day -1 (challenge at day 0) and tested utilizing Klebsiella oxytoca as infectious agent.

splenocytes = test: "In vitro-ex vivo" mytogen (PHA)-induced splenocyte proliferation in mice
Protocol: Test 5 Assessment of the "in vitro-ex vivo" effect of ST 733 and ST 789 on the mytogen (PHA)-induced splenocyte proliferation in mice.
Male B6 D2 F1 mice (Charles River, Italy) aged 7-8 weeks (4 animals per group) were used.
PHA (phytohemagglutinine) active on T lymphocytes was used as mytogen. The mytogen was tested at three different concentrations (suboptimal, optimal, superoptimal): 0.5, 2 and 4 mcg/mL/well.
The compounds were administered i.p. 25 mg/kg/day from day -5 to day -1 (spleen excision at day 0).
The experimental procedure was conducted substantially as described by Kirchner et al, "Splenic suppressor macrophages induced in mice by injection of C. parvum", J. Immunol., 1975, 115:1212.
In particular, the cell suspensions obtained from the spleens of the animals of the same group were pooled and the cell concentration was adjusted to 5×10^6 cell/mL.
To volumes of 0.1 mL of each sample, equal volumes of the mytogen preparation were added so as to obtain the previously indicated final concentrations.
Each sample was prepared in triplicate in U-bottom microtiters. A control, to which 0.1 mL of medium was added instead of the mytogen, was also prepared. The control permits the extent of spontaneous proliferation in the absence of stimulation to be assessed.
The samples were incubated at 37° C. for 48 hours and then they were pulsed with 20 μL ^3 H-TdR (25 μCi/mL).
After 18 hours of further incubation, the cells were collected on filters and counted in a beta-counter to evaluate the incorporated radioactivity (in cpm).
The results for each sample are expressed by calculating the value of the area under the curve (AUC) obtained by plotting the values of the incorporated radioactivity (in cpm) versus the three concentrations of mytogen.
In addition to AUC, also the stimulation index (SI) is considered, that is defined as follows: [formula]

[1] = test system: responders (thymus of C57B1/6) induced by stimulators (spleen of DBA/2); test: "In vitro-ex vivo" mixed lymphocyte reaction (MLR); design: species or system mice; details: for Body weight / Spleen weight / Thymus weight / ^3 H-TdR Incorporation (cpm ± S.E.) Non stimulated responders / ^3 H-TdR Incorporation (cpm ± S.E.) Stimulated responders / Thymocytes No. (× 10^7): 25 mg/kg/day i.p. from day -5 to day -1; for stimulator splenocytes-induced proliferation of responder thymocytes (in words): comparison with ST 789; for Thymocytes No. (× 10^7): pooled samples
Protocol: Test 8 Assessment of the "in vitro-ex vivo" effect of ST 733, ST 754 and ST 789 on the mixed lymphocyte reaction (MLR).
Male DBA/2 mice (Charles River, Italy) aged 8 weeks were used as "stimulators" (4 animals per group); male inbred C57 B1/6 mice (Charles River, Italy) were used as "responders" (4 animals per group).
The compounds were administered i.p. from day -5 to day -1 (thymus excision of "responders" at day 0) 25 mg/kg/day.
The experimental procedure that was used is described by Hudson, L. and Hay, F. C., Practical Immunology, Blackwell Scientific Publication 290 (1980).

DTH reaction vs. SRBC = test: Delayed type hypersensitivity test (DTH) vs. SRBC in mice; assay type: in vivo
Protocol: Test 6 Assessment of the effect of ST 785 and ST 789 on the delayed type hypersensitivity test (DTH).
Male B6 D2 F1 mice (Charles River, Italy) aged 6, 12 and 16 weeks (8 animals per group) were used.
The compounds were administered i.p., 25 mg/kg/day from day -3 to day +3 (immunization at day 0). Immunization was carried out by s.c. injection in the upper dorsal zone of the animals of 0.2 mL of SRBC (5×10^7 cells/mL).
Four days following the sensitizing injection, the animals were administered the challenge injection to bring about the delayed hypersensibility reaction. 50 μL of SRBC solution (2×10^9 cells/mL) were injected in the left hind foot-pad of the mice. The contralateral foot-pad received an equal volume of PBS. 24 hours after the challenge injection, the animals were sacrificed by cervical dislocation. The legs were amputated and the differences in weight between the left leg (treated with the challenge injection) and the contralateral leg were evaluated.
The mean of weight differences in the legs of the animals of the same experimental group was determined; the differences in the mean values calculated for each experimental group were processed using Student's "t" test (Biostatistics in Pharmacology, loc cit.).
The experimental procedure which was used is described by Miller, T. E. et al, (1973), Immunopotentiation with BCG. Modulation of the response to sheep red blood cells. J. Cancer Inst., 51:1669.

thymocytes = test: "In vitro-ex vivo" mytogen (PHA, Con A)-induced murine thymocite proliferation; design: species or system mice; details: for Body weight / Thymus weight / Con A AUC (× 10^-3) / Con A I.S. (stimulation index) / PHA AUC (area under curve) / PHA I.S. (stimulation index) / Thymocytes No. (× 10^7): 25 mg/kg/day i.p. from day -4 to day -1; for Con A AUC (× 10^-3) / Con A I.S. (stimulation index): Con A-induced proliferation; for PHA AUC (area under curve) / PHA I.S. (stimulation index): PHA-induced proliferation; for extent of induced thymocyte proliferation (in words): comparison with ST 789; for Thymocytes No. (× 10^7): pooled samples
Protocol: Test 7 Assessment of the "in vitro-ex vivo" effect of ST 754, ST 785 and ST 789 on the mytogen (PHA, Con A)-induced murine thymocite proliferation.
The compounds were administered at the dose of 25 mg/kg/day from day -4 to day -1 (thymus excision at day 0). This test was conducted following the procedure described for test 5.
The Stimulation Index (S.I.) is as defined in test 5.

[2] = 25 mg/kg/day i.p. from day -5 to day -1

Molecule | mortality (Klebsiella oxytoca) | Body weight [1] [g] | Spleen weight [1] [mg] | Thymus weight [1] [mg] | ^3 H-TdR Incorporation (cpm ± S.E.) Non stimulated responders [1] [cpm] | ^3 H-TdR Incorporation (cpm ± S.E.) Stimulated responders [1] [cpm] | stimulator splenocytes-induced proliferation of responder thymocytes (in words) [1] | Thymocytes No. (× 10^7) [1] | Body weight (thymocytes) [g] | Thymus weight (thymocytes) [mg] | Con A AUC (× 10^-3) (thymocytes) | Con A I.S. (stimulation index) (thymocytes) | PHA AUC (area under curve) (thymocytes) | PHA I.S. (stimulation index) (thymocytes) | extent of induced thymocyte proliferation (in words) (thymocytes) | Thymocytes No. (× 10^7) (thymocytes) | other results
C[C@H](NC(=O)OCCCCCn1cnc2c(=O)[nH]cnc21)C(=O)NCC(=O)[O-].[Na+] [ST 733, N-5-(ipoxantin-9-yl) pentyloxycarbonyl L-alanyl-glycine sodium salt] | no mortality at all | 21.8 ± 0.8 | 88.7 ± 13.6 | 61.5 ± 2.7 | 163.0 | 11187 | more potent than ST 789 | 15.5 × 10^7 |  |  |  |  |  |  |  |  | Body weight (splenocytes; [2]): 23.4 ± 0.2 g; Spleen weight (splenocytes; [2]): 74.0 ± 4.0 mg; Thymus weight (splenocytes; [2]): 75.0 ± 4.0 mg; PHA AUC (area under curve, cpm versus three mytogen concentrations) (splenocytes; PHA 0.5, 2 and 4 mcg/mL/well, 25 mg/kg/day i.p. from day -5 to day -1): 160 × 10^-3; PHA I.S. (stimulation index) (splenocytes; PHA-induced proliferation, 25 mg/kg/day i.p. from day -5 to day -1): 1.82; mytogen-induced proliferation versus the controls (in words) (splenocytes; PHA, 25 mg/kg/day i.p.): remarkable increase; Splenocytes No. (× 10^7) (splenocytes; pooled samples, 25 mg/kg/day i.p. from day -5 to day -1): 14.7 × 10^7
C[C@H](NC(=O)OCCCCCn1cnc2c(=O)[nH]cnc21)C(=O)N[C@@H](CCCNC(=N)N)C(=O)O [ST 785, N-5-(ipoxantin-9-yl) pentyloxycarbonyl L-alanyl-arginine] |  |  |  |  |  |  |  |  | 22.5 ± 0.4 | 73.0 ± 2.7 | 79 × 10^-3 | 1.26 | 4421 | 1.58 | more potent than ST 789 | 15.1 × 10^7 | Mean difference in weight (mg ± S.E.) between treated and untreated foot-pads (DTH reaction vs. SRBC; 25 mg/kg/day i.p. from day -3 to day +3 respect to the immunization): 22.4 ± 3.79 mg; response to the DTH test (in words) (DTH reaction vs. SRBC; 25 mg/kg/day i.p., p≤0.01): remarkably reduce
N-5-(ipoxantin-9-yl) pentyloxycarbonyl L-(alpha) aspartyl L-arginine sodium salt [ST 754] | no mortality at all | 22.3 ± 0.5 | 81.2 ± 3.3 | 57.5 ± 8.4 | 89.2 | 11011 | more potent than ST 789 | 12.9 × 10^7 | 22.9 ± 0.5 | 74.0 ± 3.4 | 78 × 10^-3 | 1.25 | 3132 | 1.12 | more potent than ST 789 | 15.4 × 10^7 | 
